According to ChEMBL document CHEMBL3351884, “Semi-synthesis of oxygenated dolabellane diterpenes with highly in vitro anti-HIV-1 activity” (Bioorg Med Chem Lett, 2014):

How the values were obtained:
[1] = test system: Human immunodeficiency virus 1; assay: Antiviral activity against X4 tropic HIV1 3B infected in human MT2 cells assessed as protection against virus-induced cytopathic effect after 2 to 3 days by MTT assay; format: functional, organism-based; conditions: Human immunodeficiency virus 1, 3B
[2] = Cytotoxicity against human MT2 cells after 4 to 5 days by MTT assay; format: cell-based
[3] = Selectivity index, ratio of CC50 for human MT2 cells to EC50 for X4 tropic HIV1 3B infected in human MT2 cells; format: toxicity, cell-based; conditions: read-out: Ratio CC50/EC50

Row | Structure (SMILES) | EC50 [1] [µM] | CC50 [2] [µM] | selectivity ratio [3]
1 | CC(C)=C1CC[C@@]2(C)C/C=C(\C)CC/C=C(\C)CC[C@H]12 | 210 | 1830 | 8.7
2 | CC(C)=C1C(=O)C[C@@]2(C)C[C@@H]3O[C@@]3(C)CC[C@@H]3O[C@@]3(C)CC[C@H]12 | 0.73 | 1690 | 2320
3 | C=C1CC[C@@H]2C(=C(C)C)C(=O)C[C@@]2(C)C[C@@H](O)[C@](C)(O)CC[C@@H]1O | 3.9 | 920 | 236
4 | CC(C)=C1C(=O)C[C@@]2(C)C/C=C(\CO)CC/C=C(\C)CC[C@H]12 | 0.69 | 980 | 1420
5 | C[C@H]1/C=C/[C@@]2(C)CC[C@@H](C(C)(C)O)[C@@H]2[C@@H](O)C[C@@](C)(O)/C=C\C1 | 6.16 | 1130 | 184
6 | CC(C)=C1C(=O)C[C@@]2(C)C/C=C(\C)CC/C=C(\C)CC[C@H]12 [DOLABELLANE] | 190 | 2570 | 13.5
7 | Cc1ccnc2c1NC(=O)c1cccnc1N2C1CC1 [NEVIRAPINE] |  | 320 | 
